# PMC10281575, “PfCRT mutations conferring piperaquine resistance in falciparum malaria shape the kinetics of quinoline drug binding and transport” (PLOS Pathogens, 2023)
# “And” between values parts separate entries of the source, which are not always exact repeats. Identical values can stand only once.
# Target: T1, PfCRT^Dd2_F145I (Plasmodium falciparum, UniProt Q8IBZ9, A220S/F145I/I356T/K76T/M74I/N326S/N75E/Q271E/R371I)
# T1 construct: expressed in transfected cells; host or cells: Xenopus laevis oocytes injected with in vitro transcribed RNA (pSP64T)
# T1 sequence (Q8IBZ9 1-424 M74I/N75E/K76T/F145I/A220S/Q271E/N326S/I356T/R371I): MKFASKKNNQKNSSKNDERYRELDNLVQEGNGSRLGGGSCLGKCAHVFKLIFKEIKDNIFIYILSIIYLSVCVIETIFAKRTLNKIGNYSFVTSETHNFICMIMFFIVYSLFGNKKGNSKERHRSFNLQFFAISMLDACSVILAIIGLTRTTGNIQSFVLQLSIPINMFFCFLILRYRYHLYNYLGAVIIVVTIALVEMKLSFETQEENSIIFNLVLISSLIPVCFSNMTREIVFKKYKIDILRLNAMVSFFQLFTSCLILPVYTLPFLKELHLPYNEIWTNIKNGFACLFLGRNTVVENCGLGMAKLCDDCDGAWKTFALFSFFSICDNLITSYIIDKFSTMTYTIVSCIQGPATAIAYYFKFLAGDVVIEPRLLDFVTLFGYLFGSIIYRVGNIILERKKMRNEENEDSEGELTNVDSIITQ
# Assay: Radiolabeled drug uptake in X. laevis oocytes expressing PfCRT^Dd2_F145I
# Type: cell-based
# From the text: The two kinetic parameters were derived by fitting the Michaelis-Menten equation to the kinetic data (Table 1).
# A codon-optimized coding sequence of the Dd2 isoform of PfCRT (PfCRT^Dd2) was subcloned into the pSP64T expression vector [21]. To generate the necessary mutations to introduce the amino acid substitutions H97Y, F145I, M343L or G353V into the pfcrt sequence, the overlap extension method was used. A region from the 5’-untranslated Xenopus β-globin sequence to the respective 3’ region, containing the full length pfcrt coding sequence, was amplified using the following primer pairs: for the H97Y mutation, numbers 1/4 and 2/3; for the F145I mutation, numbers 1/6 and 2/5; for the M343L mutation, numbers 1/8 and 2/7; and for the G353V mutation, numbers 1/10 and 2/9 (for primers, see S2 Table). Both PCR products were used as template for amplification of the final product using primers number 1/2. The resulting fragment was cloned into the pSP64T expression vector, and the presence of the desired mutation was confirmed by sequencing.
# Adult female X. laevis frogs (purchased from NASCO) were anesthetized by submersion in a solution of 0.3% (w/v) 3-amino benzoate methanesulfonate for 15 min. Sections of the ovary were surgically removed and placed in Ca^2+-free ND96 buffer supplemented with 0.1% collagenase D (w/v; Roche), 0.5% BSA (w/v) and 9 mM Na2HPO4 at 18°C for 14–16 h while gently shaking. The oocytes were then washed several times with ND96 buffer (5 mM HEPES, pH 7.5, 96 mM NaCl, 2 mM KCl, 1.8 mM CaCl2, 1 mM MgCl2), supplemented with […] gentamycin. Healthy-looking stage V-VI oocytes were manually selected and randomly grouped for injection. A codon-optimized coding sequence of PfCRT was subcloned into the pSP64T expression vector and subsequently linearized using the restriction endonuclease BamHI or SalI (New England Biolabs GmbH). RNA for injection was transcribed in vitro using the mMESSAGE mMACHINE SP6 Transcription kit (Ambion), diluted with nuclease-free water to a final concentration of 0.6 μg/μL and stored at -80°C. RNA was injected using precision-bore glass capillary tubes (3.5-inch glass capillaries; Drummond Scientific Co.), which were pulled on a vertical puller (P-87 Flaming/Brown micropipette puller, Sutter Instrument Co.) and graduated. The micropipettes were connected to a microinjector (Nanoject II Auto-Nanoliter Injector, Drummond Scientific Co.). Injection was conducted under stereomicroscopic control. 50 nL of nuclease-free water alone (control oocytes) or 50 nL of nuclease-free water containing 30 ng of RNA was injected per oocyte. Injected oocytes were kept for 72 h at 18°C in ND96 buffer with two daily buffer changes before being used for further experiments.
# Drug transport assays were performed as previously described. Briefly, measurements of radiolabeled drug uptake were made over 1 h, unless otherwise specified. […] Where specified, one or more unlabeled drugs were also present at the indicated concentrations. […] The uptake assays were terminated by removing the oocytes from the reaction medium and washing them three times with 2 mL of ice-cold ND96 buffer. Each oocyte was transferred to a separate scintillation vial and lysed by the addition of 200 μL of a 5% SDS solution. The radioactivity in the sample was measured using a liquid scintillation analyser Tri-Carb 4910 TR (PerkinElmer). Water-injected oocytes were analyzed in parallel as a negative control. The buffer from each condition was measured in duplicate in parallel to each experiment to transform counts per minute into pmol of drug. Drug uptake attributable to PfCRT was determined by subtracting the background uptake from water-injected oocytes from that of PfCRT-expressing oocytes.
# [1] = 50 μM CQ, pH 6.0, total uptake, one value per biological replicate
# [2] = 50 μM CQ, pH 6.0, water-injected uptake subtracted, per replicate
# [3] = 60 min, pH 6, per biological replicate
compound,measurement,setting,value
"CCN(CC)CCCC(C)Nc1ccnc2cc(Cl)ccc12 (stereo not shown) [CQ, chloroquine]",PfCRTDd2_F145I-mediated CQ uptake at 10 µM CQ,"10 µM CQ, single replicates",1.05 pmol oocyte-1 h-1 and 0.76 pmol oocyte-1 h-1 and 0.87 pmol oocyte-1 h-1
same,PfCRTDd2_F145I uptake of CQ at 10 min,[1],5.03 pmol oocyte-1 and 4.98 pmol oocyte-1 and 4.51 pmol oocyte-1 and 3.10 pmol oocyte-1 and 1.40 pmol oocyte-1
same,PfCRTDd2_F145I uptake of CQ at 30 min,[1],5.64 pmol oocyte-1 and 11.05 pmol oocyte-1 and 6.90 pmol oocyte-1 and 4.67 pmol oocyte-1 and 6.95 pmol oocyte-1
same,PfCRTDd2_F145I uptake of CQ at 60 min,[1],18.17 pmol oocyte-1 and 7.02 pmol oocyte-1 and 13.61 pmol oocyte-1
same,PfCRTDd2_F145I uptake of CQ at 90 min,[1],12.38 pmol oocyte-1 and 19.74 pmol oocyte-1 and 12.45 pmol oocyte-1 and 15.73 pmol oocyte-1
same,PfCRTDd2_F145I uptake of CQ at 120 min,[1],27.64 pmol oocyte-1 and 15.50 pmol oocyte-1 and 17.12 pmol oocyte-1 and 17.11 pmol oocyte-1
same,PfCRTDd2_F145I uptake of CQ at 180 min,[1],16.65 pmol oocyte-1 and 27.26 pmol oocyte-1 and 23.91 pmol oocyte-1 and 24.65 pmol oocyte-1 and 18.05 pmol oocyte-1
same,PfCRTDd2_F145I-mediated CQ uptake at 10 min,[2],0.94 pmol oocyte-1 and 1.01 pmol oocyte-1 and 0.80 pmol oocyte-1 and 2.16 pmol oocyte-1 and 0.92 pmol oocyte-1
same,PfCRTDd2_F145I-mediated CQ uptake at 30 min,[2],0.42 pmol oocyte-1 and 1.71 pmol oocyte-1 and 1.49 pmol oocyte-1 and 3.31 pmol oocyte-1 and 2.06 pmol oocyte-1
same,PfCRTDd2_F145I-mediated CQ uptake at 60 min,[2],3.80 pmol oocyte-1 and 4.28 pmol oocyte-1 and 2.84 pmol oocyte-1
same,PfCRTDd2_F145I-mediated CQ uptake at 90 min,[2],3.78 pmol oocyte-1 and 4.21 pmol oocyte-1 and 3.32 pmol oocyte-1 and 5.64 pmol oocyte-1
same,PfCRTDd2_F145I-mediated CQ uptake at 120 min,[2],7.06 pmol oocyte-1 and 4.10 pmol oocyte-1 and 3.52 pmol oocyte-1 and 3.59 pmol oocyte-1
same,PfCRTDd2_F145I-mediated CQ uptake at 180 min,[2],3.40 pmol oocyte-1 and 6.55 pmol oocyte-1 and 4.77 pmol oocyte-1 and 7.29 pmol oocyte-1 and 3.73 pmol oocyte-1
same,PfCRTDd2_F145I-mediated CQ uptake at 50 µM CQ,"50 µM CQ, single replicates",3.80 pmol oocyte-1 h-1 and 4.28 pmol oocyte-1 h-1 and 2.84 pmol oocyte-1 h-1
same,PfCRTDd2_F145I-mediated CQ uptake at 100 µM CQ,"100 µM CQ, single replicates",7.23 pmol oocyte-1 h-1 and 7.33 pmol oocyte-1 h-1 and 8.14 pmol oocyte-1 h-1
same,PfCRTDd2_F145I-mediated CQ uptake at 200 µM CQ,"200 µM CQ, single replicates",12.53 pmol oocyte-1 h-1 and 11.12 pmol oocyte-1 h-1 and 14.18 pmol oocyte-1 h-1
same,PfCRTDd2_F145I-mediated CQ uptake at 300 µM CQ,"300 µM CQ, single replicates",13.73 pmol oocyte-1 h-1 and 16.27 pmol oocyte-1 h-1 and 18.53 pmol oocyte-1 h-1
same,PfCRTDd2_F145I-mediated CQ uptake at 400 µM CQ,"400 µM CQ, single replicates",14.23 pmol oocyte-1 h-1 and 18.19 pmol oocyte-1 h-1 and 22.31 pmol oocyte-1 h-1
same,PfCRTDd2_F145I-mediated CQ uptake at 500 µM CQ,"500 µM CQ, single replicates",19.16 pmol oocyte-1 h-1 and 17.39 pmol oocyte-1 h-1 and 23.99 pmol oocyte-1 h-1
same,PfCRTDd2_F145I-mediated CQ uptake at 10 µM CQ,[3],1.05 pmol oocyte-1 h-1 and 0.76 pmol oocyte-1 h-1 and 0.87 pmol oocyte-1 h-1
same,PfCRTDd2_F145I-mediated CQ uptake at 50 µM CQ,[3],2.84 pmol oocyte-1 h-1 and 3.80 pmol oocyte-1 h-1 and 4.28 pmol oocyte-1 h-1
same,PfCRTDd2_F145I-mediated CQ uptake at 100 µM CQ,[3],7.23 pmol oocyte-1 h-1 and 7.33 pmol oocyte-1 h-1 and 8.14 pmol oocyte-1 h-1
same,PfCRTDd2_F145I-mediated CQ uptake at 200 µM CQ,[3],12.53 pmol oocyte-1 h-1 and 11.12 pmol oocyte-1 h-1 and 14.18 pmol oocyte-1 h-1
same,PfCRTDd2_F145I-mediated CQ uptake at 300 µM CQ,[3],13.73 pmol oocyte-1 h-1 and 16.27 pmol oocyte-1 h-1 and 18.53 pmol oocyte-1 h-1
same,PfCRTDd2_F145I-mediated CQ uptake at 400 µM CQ,[3],14.23 pmol oocyte-1 h-1 and 18.19 pmol oocyte-1 h-1 and 22.31 pmol oocyte-1 h-1
same,PfCRTDd2_F145I-mediated CQ uptake at 500 µM CQ,[3],19.16 pmol oocyte-1 h-1 and 17.39 pmol oocyte-1 h-1 and 23.99 pmol oocyte-1 h-1
same,"Vmax, maximal velocity of drug transport","Michaelis-Menten fit, 10-500 μM drug, 60 min, pH 6",35 ± 2 pmol oocyte^-1 h^-1
same,increase of KM by the F145I substitution,versus PfCRT^Dd2,44%
